Data taken from US6391868B1, “Use of 5-alpha-androst-1-en-3,17-dione to increase the level of the anabolic/androgenic hormone 17-beta-hydroxy-5-alpha-androst-1-en-3-one in humans” (LPT Research, Inc., priority 2000, dated 2002).

What was measured:
[1] = Steroids (8) 216; cited from earlier work
[2] = Oral treatment of a person with andropause-type symptoms; type: in vivo, human; conditions: oral 3×100 mg daily, 4 weeks, one person
Experimental: A person with complaints of decreased libido, lethargy, depression, and muscular weakness, was treated for 4 weeks with oral androstenedione 3×100 mg daily. […] After a 2 week respite, they then commenced a 4 week regimen of 5alpha-ANDROST-1-EN-3,17-DIONE using the same protocol (3×100 mg daily).

[3] = 100 mg orally to men; cited from earlier work

In the case of `C[C@]12C=CC(=O)C[C@@H]1CC[C@@H]1[C@@H]2CC[C@]2(C)[C@@H](O)CC[C@@H]12` [17beta-hydroxy-5alpha-androst-1-en-3-one], the “anabolic properties relative to testosterone” value [1] is listed as “considerably more potent”.

With `C[C@]12CCC(=O)C=C1CC[C@@H]1[C@@H]2CC[C@]2(C)C(=O)CC[C@@H]12` [androstenedione, 4-androstenedione] the “reported improvement of symptoms (decreased libido, lethargy, depression, muscular weakness)” value [2] was “did not report any noticeable improvement”.

For `C[C@]12C=CC(=O)C[C@@H]1CC[C@@H]1[C@@H]2CC[C@]2(C)C(=O)CC[C@@H]12` [5alpha-ANDROST-1-EN-3,17-DIONE, 5alpha-androst-1-en-3,17-dione], the “reported improvement of symptoms (decreased libido, lethargy, depression, muscular weakness)” value [2] is given as “clearly evident significant improvements in all their symptoms” and the “excretion of 17beta-hydroxy-5alpha-androst-1-en-3-one in the urine” value [3] is given as “considerable excretion”.
